Series [1] has as its system mouse model of generalised seizure. The conditions noted are these: data of PCT/GB2020/052944; cited from earlier work.
The nature of series [2]: Stability of 6-OH CBDV Form A to compression (XRPD after pressing). Particulars: ~60 mg in KBr pellet die, compressed overnight at ~370 MPa, analysed immediately by XRPD. The class given is physicochemical. The procedure:
(§1) XRPD analyses were performed using a Panalytical Empyrean diffractometer equipped with a Cu X-ray tube and a PIXcel 1 D-Medipix3 detector system. The samples were analysed at ambient temperature in transmission mode and held between low density PVC films. The XRPD program parameters were: range 3-40° 2θ or 4-40° 2θ, step size 0.01313°, counting time 23 sec, ˜5 min run time. Samples were spun at 60 rpm during data collection. XRPD patterns were sorted, manipulated using HighScore Plus v4.9 software.
Crystalline Form A material (˜60 mg) was added to a KBr pellet die and compressed overnight at ˜370 MPa using a hydraulic press. The resultant solid disc was removed from the press and immediately analysed by XRPD.

Series [3] can be described thus: Stability of Form A to ball milling (XRPD after milling). The conditions noted are these: 6 minutes at 25 Hz. The class given is physicochemical. The procedure: as §1
A ball mill was used to mimic the effects of grinding that would be experienced during formulation steps such as dry blending and wet granulation.
Approximately 45 mg of crystalline Form A material was added to a milling chamber with an agate milling ball. Using a Retsch MM200 mixer mill, the material was milled for 6 minutes at a frequency of 25 Hz. Periodically, the milling was stopped and powder that adhered to the milling chamber was scraped down. The resultant milled material was analysed using XRPD. Samples were also milled with addition of a small amount of solvent (˜10 μL).

Consider `C=C(C)[C@@H]1C[C@H](O)C(C)=C[C@H]1c1c(O)cc(CCC)cc1O` [6-OH CBDV, 6-hydroxy cannabidivarin], for which the Anticonvulsant activity result in series [1] was “displays anticonvulsant activity”.
With `C=C(C)[C@@H]1C[C@H](O)C(C)=C[C@H]1c1c(O)cc(CCC)cc1O` [Form A, 6-hydroxy cannabidivarin], the “Solid form after compression (XRPD)” value in series [2] was “remained as Form A”. Also, the “Output Form after milling (XRPD)” value is “no change in form” in series [3] (dry ball milling, no solvent) and “no change in form” in series [3] (wet ball milling, water (~10 μL)).

The record behind these values is patent publication US20250289774A1, “[…] OF A CANNABIDIOL-LIKE CANNABINOID” (Jazz Pharmaceuticals Research UK Limited, priority 2022, published 2025).
